The term MIC denotes the least concentration at which growth counts as inhibited.

In brackets after ≈: the same amount, converted by molar mass. Bounds are passed on as bounds.

The subject of one test is E. coli containing KPC-2. In words: MIC by broth microdilution, E. coli containing KPC-2 (Ec KPC2 Iso). Particulars: Escherichia coli, read-out: Ec KPC2 Iso (MIC), E. coli containing KPC-2 (carbapenemase from Klebsiella pneumoniae). It counts as cell-based. On the procedure:
(§1) Bacterial isolates were cultivated from −70° C. frozen stocks by two consecutive overnight passages at 35° C. in ambient air on 5% blood agar (Remel, Lenexa, Kans.). Quality control and P. aeruginosa ATCC 27853) is from the American Type Culture Collection (ATCC; Rockville, Md.) and PAO1 was received from Dr. K. Poole.
Strain NB27273 (BW25113 pspB::Km^r) was obtained from the Keio transposon insertion collection. The strain has the pspB gene replaced by a kanamycin resistance marker (BW25113 pspB::Km^r). This strain was cured of the transposon in pspB via FLP recombinase using published methodology. The resulting strain, BW25113 pspB, was used as a host for multicopy vectors expressing key β-lactamases. Multicopy plasmids directing constitutive expression of β-lactamases were established as follows: Synthetic, codon optimized genes encoding E. coli KPC2 and SHV12 β-lactamases were made by DNA2.0 (Palo Alto, Calif.). Each of the synthetic fragments were designed to contain NotI and NcoI restriction sites at their termini, allowing ligation into a NotI/NcoI digested pET28a(+) derivative for protein expression. […] The codon optimized nucleotide sequences and relevant primer recognition information is shown below:
The PCR products were then digested with XhoI and EcoRI and ligated into similarly digested plasmid pAH63-pstS(BlaP). Plasmid pAH63-pstS(BlaP) is a derivative of plasmid pAH63 (J Bacteriol: 183(21): 6384-6393) made by cloning the TEM-1 (bla) promoter and signal peptide encoding region from plasmid pBAD (J Bacteriol. 1995 July 177(14):4121-30) into plasmid pAH63. This fragment was PCR amplified from pBAD using primer pair E192 (ttca[…]) (SEQ ID NO:13) and E194 ([…]) (SEQ ID NO:14), digested with PstI and BamHI and inserted into similarly digested plasmid pAH63. Therefore, expression of β-lactamases from pAH63-pstS(BlaP) based constructs is constitutive and the signal sequence is provided to direct these proteins to the periplasm. Plasmid pAH63 based vectors are used for insertion into the genome in single copy, however, to provide higher expression levels to allow more sensitive detection of the susceptibility of compounds to the β-lactamases, the expression inserts contained in these vectors were moved to the replicative multicopy vector pBAD-Kan (J Bacteriol. 1995 July 177(14):4121-30). To accomplish this, the inserts encompassing the β-lactamase genes, with the associated TEM promoter and signal sequences, were PCR amplified from their corresponding vectors using primer E269 (ccg[…]) (SEQ ID NO:15) and E202 (aatc[…]) (SEQ ID NO:16) for the KPC2 construct and E204 (aatc[…]) (SEQ ID NO:17) for the SHV12 construct. These fragments were then digested with XbaI and EcoRI, and each was inserted into pBAD18-kan that had been digested with the same enzymes to generate a pair of multicopy vectors expressing KPC2 and SHV12 respectively. These vectors were transformed into BW25113 pspB to generate strains NB27273-CDY0033 (expressing KPC2) and NB27273-CDY0030 (expressing SHV12). The pBAD18-kan vector also contains the TEM promoter region and signal sequence, (but lacks any intact β-lactamase genes) and was transformed into BW25113 pspB using standard protocols to generate the control strain NB27273-CDY0026. Expression of the β-lactamases was confirmed by verifying decreased susceptibility to example test antibiotics that are known substrates of KPC2 or SHV12. Susceptibility Testing
Minimal Inhibitory Concentrations (MICs) were determined by the broth microdilution method in accordance with Clinical and Laboratories Institute (CLSI) guidelines. In brief, fresh overnight bacterial cultures were suspended in sterile saline, and adjusted to a 0.5 McFarland turbidity standard. Bacterial suspensions were then diluted in cation adjusted Mueller-Hinton Broth (MHB II; BBL) to yield a final inoculum of approximately 5×10^5 colony-forming units (CFU)/mL. […]

Another test has as its system E. coli strain 25922. Put plainly: MIC by broth microdilution, E. coli strain 25922. Format: cell-based. Particulars: Escherichia coli, 25922, E. coli strain 25922; read-out: Ec 25922 (MIC). On the procedure: as §1
Minimal Inhibitory Concentrations (MICs) were determined by the broth microdilution method in accordance with Clinical and Laboratories Institute (CLSI) guidelines. In brief, fresh overnight bacterial cultures were suspended in sterile saline, and adjusted to a 0.5 McFarland turbidity standard. Bacterial suspensions were then diluted in cation adjusted Mueller-Hinton Broth (MHB II; BBL) to yield a final inoculum of approximately 5×10^5 colony-forming units (CFU)/mL. A master plate of antibiotics was prepared at a concentration equivalent to hundred-fold the highest desired final concentration in 100% dimethyl sulfoxide (DMSO). The master antibiotic plate was then diluted by serial twofold dilution with a multichannel pipette. The resulting dilution series of compounds were diluted 1:10 with sterile water leading to a 10% DMSO final concentration. A volume of 10 μL of the drug dilution series was transferred to 96-well assay plates. Assay plates were inoculated with 90 μL of bacterial suspensions and incubated at 35-37° C. for 20 hrs. The assay plates were read using a microtiter plate reader (Molecular Devices) at 600 nm as well as by visual observation with a reading mirror. The lowest concentration of the compound that prevented visible growth was recorded as the MIC. Performance of the assay was monitored by testing aztreonam against laboratory quality control strains in accordance with guidelines of the CLSI.
On the technique in general: Dilution methods test growth across graded concentrations, often in twofold steps.

Regarding `CC(C)(O/N=C(\C(=O)N[C@@H]1C(=O)N(S(=O)(=O)O)[C@@H]1Cn1cc(CN)nn1)c1csc(N)n1)C(=O)O` [Example 44, 2-(((Z)-(2-(((2R,3S)-2-((4-(aminomethyl)-1H-1,2,3-triazol-1-yl)methyl)-4-oxo-1-sulfoazetidin-3-yl)amino)-1-(2-aminothiazol-4-yl)-2-oxoethylidene)amino)oxy)-2-methylpropanoic acid], the MIC was determined as 1.5 µg/mL (≈ 2.82 µM) with E. coli containing KPC-2 and 0.67 µg/mL (≈ 1.26 µM) in the test with E. coli strain 25922.

Consider `CC(C)(O/N=C(\C(=O)N[C@@H]1C(=O)N(S(=O)(=O)O)[C@@H]1CN1C[C@H](CN)OC1=O)c1csc(N)n1)C(=O)O` [Example 58, 2-(((Z)-(2-(((2R,3S)-2-(((S)-5-(aminomethyl)-2-oxooxazolidin-3-yl)methyl)-4-oxo-1-sulfoazetidin-3-yl)amino)-1-(2-aminothiazol-4-yl)-2-oxoethylidene)amino)oxy)-2-methylpropanoic acid], for which the figures for the MIC with E. coli containing KPC-2 and in the test on E. coli strain 25922 were 1 µg/mL (≈ 1.82 µM) and 2 µg/mL (≈ 3.64 µM), respectively.

Take `CC(C)(O/N=C(\C(=O)N[C@@H]1C(=O)N(S(=O)(=O)O)[C@@H]1Cn1ncc(CNC=N)n1)c1csc(N)n1)C(=O)O` [Example 62, 2-(((Z)-(1-(2-aminothiazol-4-yl)-2-(((2R,3S)-2-((4-(formimidamidomethyl)-2H-1,2,3-triazol-2-yl)methyl)-4-oxo-1-sulfoazetidin-3-yl)amino)-2-oxoethylidene)amino)oxy)-2-methylpropanoic acid]: the MIC in the test on E. coli containing KPC-2 amounted to 2 µg/mL (≈ 3.58 µM); in the test with E. coli strain 25922, 0.5 µg/mL (≈ 0.895 µM).

In the case of `CC(C)(O/N=C(\C(=O)N[C@@H]1C(=O)N(S(=O)(=O)O)[C@@H]1CN1C[C@H](CNC(=N)N)OC1=O)c1csc(N)n1)C(=O)O` [Example 59, 2-(((Z)-(1-(2-aminothiazol-4-yl)-2-(((2R,3S)-2-(((S)-5-(guanidinomethyl)-2-oxooxazolidin-3-yl)methyl)-4-oxo-1-sulfoazetidin-3-yl)amino)-2-oxoethylidene)amino)oxy)-2-methylpropanoic acid], the MIC with E. coli containing KPC-2 and in the test with E. coli strain 25922 was 16 µg/mL (≈ 27 µM) throughout.

Take `NCc1cn(C[C@@H]2[C@H](NC(=O)/C(=N\OC3(C(=O)O)CC3)c3csc(N)n3)C(=O)N2S(=O)(=O)O)nn1` [Example 27, 1-(((Z)-(2-(((2R,3S)-2-((4-(aminomethyl)-1H-1,2,3-triazol-1-yl)methyl)-4-oxo-1-sulfoazetidin-3-yl)amino)-1-(2-aminothiazol-4-yl)-2-oxoethylidene)amino)oxy)cyclopropanecarboxylic acid]: the MIC was 0.125 µg/mL (≈ 0.236 µM) in the test with E. coli containing KPC-2 and ≤ 0.06 µg/mL with E. coli strain 25922.

In the case of `CC(C)(O/N=C(\C(=O)N[C@@H]1C(=O)N(S(=O)(=O)O)[C@@H]1CN1CC[C@@H](N)C1=O)c1csc(N)n1)C(=O)O` [Example 86, 2-(((Z)-(2-(((2R,3S)-2-(((R)-3-amino-2-oxopyrrolidin-1-yl)methyl)-4-oxo-1-sulfoazetidin-3-yl)amino)-1-(2-aminothiazol-4-yl)-2-oxoethylidene)amino)oxy)-2-methylpropanoic acid], the MIC with E. coli containing KPC-2 and in the test with E. coli strain 25922 was 1 µg/mL (≈ 1.87 µM) throughout.

As for `C[C@@H]1CN(C[C@@H]2[C@H](NC(=O)/C(=N\OC(C)(C)C(=O)O)c3csc(N)n3)C(=O)N2S(=O)(=O)O)C(=O)O1` [Example 23, 2-(((Z)-(1-(2-aminothiazol-4-yl)-2-(((2R,3S)-2-(((R)-5-methyl-2-oxooxazolidin-3-yl)methyl)-4-oxo-1-sulfoazetidin-3-yl)amino)-2-oxoethylidene)amino)oxy)-2-methylpropanoic acid], the MIC with E. coli containing KPC-2 was determined as 1 µg/mL (≈ 1.87 µM); in the test with E. coli strain 25922, 2 µg/mL (≈ 3.74 µM).

As to `CNCCNCc1cnn(C[C@@H]2[C@H](NC(=O)/C(=N\OC3(C(=O)O)CC3)c3csc(N)n3)C(=O)N2S(=O)(=O)O)n1` [Example 117, 1-(((Z)-(1-(2-aminothiazol-4-yl)-2-(((2R,3S)-2-((4-(((2-(methylamino)ethyl)amino)methyl)-2H-1,2,3-triazol-2-yl)methyl)-4-oxo-1-sulfoazetidin-3-yl)amino)-2-oxoethylidene)amino)oxy)cyclopropanecarboxylic acid], the MIC in the test with E. coli containing KPC-2 turned out to be 1 µg/mL (≈ 1.7 µM); with E. coli strain 25922 it was 0.5 µg/mL (≈ 0.852 µM).

For the molecule `Cc1ncn(C[C@@H]2[C@H](NC(=O)/C(=N\OC(C)(C)C(=O)O)c3csc(N)n3)C(=O)N2S(=O)(=O)O)n1` [Example 60, 2-(((Z)-(1-(2-aminothiazol-4-yl)-2-(((2R,3S)-2-((3-methyl-1H-1,2,4-triazol-1-yl)methyl)-4-oxo-1-sulfoazetidin-3-yl)amino)-2-oxoethylidene)amino)oxy)-2-methylpropanoic acid], the MIC with E. coli containing KPC-2 and in the test on E. coli strain 25922 was 8 µg/mL (≈ 15.5 µM) in each case.

For the molecule `C[C@H](NCCCN)c1cnn(C[C@@H]2[C@H](NC(=O)/C(=N\OC3(C(=O)O)CC3)c3csc(N)n3)C(=O)N2S(=O)(=O)O)n1` [Example 146, 1-(((Z)-(2-(((2R,3S)-2-((4-((S)-1-((3-aminopropyl)amino)ethyl)-2H-1,2,3-triazol-2-yl)methyl)-4-oxo-1-sulfoazetidin-3-yl)amino)-1-(2-aminothiazol-4-yl)-2-oxoethylidene)amino)oxy)cyclopropanecarboxylic acid], the MIC with E. coli containing KPC-2 and in the test with E. coli strain 25922 was 0.5 µg/mL (≈ 0.832 µM) each time.

For `N=C(NCc1cnn(C[C@@H]2[C@H](NC(=O)/C(=N\OC3(C(=O)O)CC3)c3csc(N)n3)C(=O)N2S(=O)(=O)O)n1)N[C@H]1C[C@H](N)C1` [Example 125, 1-(((Z)-(2-(((2R,3S)-2-((4-((3-((1 r,3R)-3-aminocyclobutyl)guanidino)methyl)-2H-1,2,3-triazol-2-yl)methyl)-4-oxo-1-sulfoazetidin-3-yl)amino)-1-(2-aminothiazol-4-yl)-2-oxoethylidene)amino)oxy)cyclopropanecarboxylic acid], the figures for the MIC in the test with E. coli containing KPC-2 and in the test with E. coli strain 25922 were 0.5 µg/mL (≈ 0.78 µM) and 0.25 µg/mL (≈ 0.39 µM), respectively.

On to `N=CNC[C@@H]1CN(C[C@@H]2[C@H](NC(=O)/C(=N\OC3(C(=O)O)CC3)c3csc(N)n3)C(=O)N2S(=O)(=O)O)C(=O)O1` [Example 104, 1-(((Z)-(1-(2-aminothiazol-4-yl)-2-(((2R,3S)-2-(((R)-5-(formimidamidomethyl)-2-oxooxazolidin-3-yl)methyl)-4-oxo-1-sulfoazetidin-3-yl)amino)-2-oxoethylidene)amino)oxy)cyclopropanecarboxylic acid], for which the MIC in the test with E. coli containing KPC-2 and in the test on E. coli strain 25922 was > 64 µg/mL in each case.

The values above are taken from patent US10369138B2, “Monobactam organic compounds for the treatment of bacterial infections” (Novartis AG, priority 2014, dated 2019).
